Reference: patent US20080207594A1, “Use of Gsk-3 Inhibitors for Preventing and Treating Pancreatic Autoimmune Disorders” (Davelogen Aktiengesellschaft, priority 2005, published 2008)
“Also recorded” adds a separate entry of the source.

Experiments:
INS-1E cells = assay: Protection against apoptotic signals, nucleosomal fragmentation (cell death detection ELISA) and morphology; type: cell-based, rat
Description: FIG. 7: Determination of cytokine or high glucose and fatty acid induced Nucleosomal-fragmentation in INS-1 cells. To induce apoptosis INS-1 cells were exposed to the cytokines IL-1 beta at 4 ng/ml and IFN-gamma at 1 U/ml (Cyt. in figure A) or glucose at […] and palmitate at […] (Pal/Gluc in figure B) for 24 hours. 1 hour before the application of these reagents indicated cell samples were treated with 10 μM 1-Azakenpaullone (AzaP) or 15 μM NG-monomethyl-L-arginine monoacetate (L-NMMA) an inhibitor of the inducible nitric oxide synthase (iNOS). Apoptosis was assessed by determination of nucleosomal accumulation in the cytosolic extracts using a cell death detection ELISA kit. Nucleosomal release is expressed relative to untreated control cells (Co.).
FIG. 8: Cell morphology of treated cells was inspected by light microscopy. Cell morphologies of untreated (A), Pal/Gluc (B) and Pal/Gluc+AzaP (C) treated cells are shown.
The beta cell line INS-1E was used to investigate anti-apototic effects of the compounds of the invention on beta cells. Apotosis was induced by culturing cells with a cytokine combination (interleukine-1beta/interferon gamma) or with high concentrations of both glucose and palmitate. 1-Azakenpaullone strongly (60%) inhibited cytokine-induced apoptosis (FIG. 7A), with a weaker effect (25%) against glucolipotoxicity induced apoptosis (FIG. 7B). The state of the treated and untreated cells was analyzed by microscopy.
INS-1E cells were cultured as described (Merglen et al., (2004) Endocrinology; 145: 667-678). Cells were seeded at a density of 1×10^4 cells per 96-well in 96 well plates in 200 μl culture medium for 3 days. Then, cells were cultured for 1 day in 100 μl medium containing 1% FCS and 5 mM glucose. […] The rate of apoptosis was measured by the specific determination of mono- and oligonucleosomes in the cytoplasmic fraction of cell lysates using a cell death detection ELISA kit (ROCHE Cat. No. 1774425). The assay is based on a quantitative sandwich-enzyme-immunoassay-principle using mouse monoclonal anti-histone and anti-DNA peroxidase antibodies. […]

Pax4 [1] = assay: Pax4 transcription in INS-1E insulinoma cells, quantitative RT-PCR; type: cell-based, rat; details: INS-1E cells; for stimulation of Pax4 transcription relative to activin A (in words): FIG. 16
Description: The response of the Pax4 gene to test compounds was investigated in the rat insulinoma cell line INS-1E. INS-1E cells are known to express Pax4 and to upregulate Pax4 levels in response to the treatment with activin-A and betacellulin. In the search for novel beta cell mitogens and/or beta cell protective agents the inventors treated INS-1E cells with different test compounds.
Total RNA from 8×10^4 cells growing on 4 cm^2 surface area of a tissue culture dish was extracted using Qiagen RNAeasy kit according to the instructions of the manufacturer (Qiagen) and 2 μg was converted into cDNA. Primers for pax4, 18S RNA, and rat RNA polymerase II largest subunit (RPB1) were designed using the Primer Express 1.5 Software from Applied Biosystems and sequences can be obtained upon request. Quantitative real-time PCR was performed using Applied Biosystems SDS 7000 detection system. Amplifications from 2 independent experiments were performed in duplicate for each transcript and mean values were normalized to the mean value of the reference RNA 18S RNA.
(§1) Cells were seeded at a density of 2×10^4 cells per cm^2 6 to 8 days before the treatment with chemicals. During the growth period the medium was changed once. The cells were incubated for different periods of time with chemicals under serum-free conditions. The cells were harvested in Qiagen RNAeasy cell lysate buffer and immediately transferred to dry ice. The samples were stored at −20° C. until RNA isolation was carried out.
as §1, with “RNA easy” for “RNAeasy”, “−20 degree” for “−20° C.”

Pax4 [2] = assay: Pax4 transcription in rat islets, quantitative RT-PCR; type: cell-based
Description: The response of the Pax4 gene to two compounds was investigated in rat islets. […] No effects were observed on the expression levels of cyclophilin B and RNA polymerase II largest subunit (RPB1) indicating a specific regulation of the Pax4 gene.
Total RNA from 200 to 400 islets growing in wells with 4 cm^2 surface area of a tissue culture dish was isolated according to instruction of the manufacturer of Trizol™ reagent. To further purify the RNA and to remove remaining DNA contaminations RNA was treated with the Qiagen RNAeasy kit according to the instructions of the manufacturer (Qiagen) and about 1 μg was converted into cDNA. Primers for pax4, 18S RNA, and rat RNA polymerase II largest subunit (RPB1) were designed using the Primer Express 1.5 Software from Applied Biosystems. Quantitative real-time PCR was performed using Applied Biosystems SDS 7000 detection system. Amplifications from at least 2 independent experiments were performed in duplicate for each transcript and mean values were normalized to the mean value of the reference RNA 18S RNA.
Rat islets were isolated from Wistar rats and cultured as described (Brun et al., 2004, JCB; 167: 1123-1135). In brief, 10 ml ice-cold liberase solution (Roche) was injected into the pancreas via the common bile duct. After dissection the pancreas was incubated for 40 minutes at 37° C. and then further dissociated by repeated pipetting using a 10 ml pipette. Islets were isolated by applying digested tissue to a ficoll-gradient before they were manually picked using a stereomicroscope. Islets were placed in bacteriological wells and compounds were administered as indicated. Islets were harvested in Trizol™ and immediately transferred to dry ice. The samples were stored at −20° C. until RNA isolation was carried out.

primary rat beta cells = assay: In vitro beta cell proliferation assay (Ki-67 / C-peptide staining of dispersed islets); type: cell-based; details: incubation 72 hours; for replication of primary rat beta cells, agent alone: FIG. 12, FIG. 14
Description: About 1.5×10^4 beta cells were inspected per experiment and the percentage of double positive cells was determined. The number of replicating beta cells is expressed relative to control cells maintained in 10% FCS (FIG. 9A). Prolactin treated cells served as a technical control. Identification of C-peptide and Ki67 double positive beta cells dispersed on adhesive slides was carried out by immunohistochemistry (FIG. 9B).
We investigated the growth promoting effects by monitoring the percentage of replicating beta cells in isolated rat islets. Replicating beta cells were identified by immunohistological staining of dispersed islets with antibodies against C-peptide, a fragment of proinsulin, and the cell division marker Ki-67.
Islets of Langerhans are isolated by standard Liberase digestion method from rat pancreata (Liberase™ Cl enzyme blend BMB Cat. # 1814-435, ROCHE).
Following the culture period the islets are dispersed gently by titration in Ca^2+ and Mg^2+ free PBS. […] The adherent islet cells are fixed and stained by standard immunofluorescence techniques for C-peptide, a fragment of proinsulin and Ki-67 a marker of proliferating cells.
An Olympus microscope equipped with an automatic image acquisition device (Olympus) is used for counting of C-peptide positive beta cells. Proliferating C-peptide/Ki-67 double positive beta cells are counted manually. Thereby the fraction of proliferating beta cells can be determined.

Molecule: O=C1Cc2c([nH]c3ccc(Br)cc23)-c2ncccc2N1 [1-Azakenpaullone]
- cell morphology by microscopy, signs of cell death (INS-1E cells; INS-1E exposed to toxic agents (Pal/Gluc), FIG. 8): partially antagonizes this effect
- inhibition of glucolipotoxicity induced apoptosis (INS-1E cells; INS-1E, glucose at 25 nM and palmitate at 0.04 nM for 24 hours, 10 μM compound 1 hour before, FIG. 7B): 25%
- inhibition at 10 µM (INS-1E cells; Rattus norvegicus, INS-1E, IL-1 beta 4 ng/ml and IFN-gamma 1 U/ml for 24 hours, 10 μM compound 1 hour before, FIG. 7A, read-out: inhibition of cytokine-induced apoptosis): 60%
- induction of relative Pax4 expression (Pax4 [1]; 3 μM): about 6 fold
- Pax4 RNA levels compared with technical control activin-A (Pax4 [2]): induces higher Pax4 RNA levels than activin-A
- time course of Pax4 RNA levels (Pax4 [2]): transiently up-regulates Pax4 RNA levels

Molecule: CC(=O)O/N=C1/C(=C2/C(=O)Nc3cc(Br)ccc32)Nc2ccccc21 [(2′Z,3′ E)-6-Bromoindirubin-3′-acetoxime]
- induction of Pax4 expression (in words) (Pax4 [1]): induction of Pax4 expression was also found

Molecule: O=C1Nc2cc(Br)ccc2/C1=C1/Nc2ccccc2/C1=N\O [(2′Z,3′E)-6-Bromoindirubin-3′-oxime]
- induction of Pax4 expression (in words) (Pax4 [1]): induction of Pax4 expression was also found

Molecule: O=C1Cc2c([nH]c3ccc([N+](=O)[O-])cc23)-c2ccccc2N1 [Alsterpaullone]
- induction of relative Pax4 expression compared to the control (Pax4 [1]; 20 μM): about 7 fold

Molecule: Cc1c[nH]c(-c2cnc(NCCNc3ccc(C#N)cn3)nc2-c2ccc(Cl)cc2Cl)n1 [CHIR99021]
- replication of primary rat beta cells, agent alone (primary rat beta cells): trigger beta cell replication; also recorded: promotes replication of primary rat beta cells

Molecule: COc1ccc(CNC(=O)Nc2ncc([N+](=O)[O-])s2)cc1 [GSK-3 inhibitor VIII, N-(4-Methoxybenzyl)-N′-(5-nitro-1,3-thiazol-2-yl)urea]
- induction of Pax4 expression (in words) (Pax4 [1]): induction of Pax4 expression was also found

Molecule: GIP: incretin GIP (gastrin inhibitory protein) (YAEGTFISDYSIAMDKIHQQDFVNWLLAQKGKKNDWKHNITQ; Gastric inhibitory polypeptide; UniProt P09681 52-93, looked up)
- replication of primary rat beta cells, agent alone (primary rat beta cells): trigger beta cell replication
- replication of primary rat beta cells, GIP combined with GSK3 inhibitor CHIR99021 (primary rat beta cells; FIG. 14): cooperative effects

Molecule: NGF: nerve growth factor
- replication of primary rat beta cells, growth factor combined with GSK3 inhibitor 1-Azakenpaullone (primary rat beta cells; FIG. 12): potentiate the growth promoting effects
- replication of primary rat beta cells, agent alone (primary rat beta cells): not sufficient to trigger beta cell replication

Molecule: exendin-4
- replication of primary rat beta cells, agent alone (primary rat beta cells): trigger beta cell replication

B1: BMP 7: TGF-beta family member (protein, UniProt P18075 293-431, looked up)
Bone morphogenetic protein 7: STGSKQRSQNRSKTPKNQEALRMANVAENSSSDQRQACKKHELYVSFRDLGWQDWIIAPEGYAAYYCEGECAFPLNSYMNATNHAIVQTLVHFINPETVPKPCCAPTQLNAISVLYFDDSSNVILKKYRNMVVRACGCH
- stimulation of Pax4 transcription relative to activin A (in words) (Pax4 [1]): hardly induced Pax4 gene transcription

B2: BMP 4: TGF-beta family member (protein, UniProt P12644 293-408, looked up)
Bone morphogenetic protein 4: SPKHHSQRARKKNKNCRRHSLYVDFSDVGWNDWIVAPPGYQAFYCHGDCPFPLADHLNSTNHAIVQTLVNSVNSSIPKACCVPTELSAISMLYLDEYDKVVLKNYQEMVVEGCGCR
- stimulation of Pax4 transcription relative to activin A (in words) (Pax4 [1]): hardly induced Pax4 gene transcription

B3: activin-A: technical control previously shown to activate Pax4 transcription in rat islets (protein, UniProt P08476 311-426, looked up)
Inhibin beta A chain: GLECDGKVNICCKKQFFVSFKDIGWNDWIIAPSGYHANYCEGECPSHIAGTSGSSLSFHSTVINHYRMRGHSPFANLKSCCVPTKLRPMSMLYYDDGQNIIKKDIQNMIVEECGCS
modifications: Inhibin beta A chain
- time course of Pax4 RNA levels (Pax4 [2]): more sustained increase in Pax4 RNA levels

B4: activin AB: protein related to activin A (protein, UniProt P08476 311-426; P09529 293-407, looked up)
Inhibin beta A chain: B3 Inhibin beta A chain
Inhibin beta B chain: GLECDGRTNLCCRQQFFIDFRLIGWNDWIIAPTGYYGNYCEGSCPAYLAGVPGSASSFHTAVVNQYRMRGLNPGTVNSCCIPTKLSTMSMLYFDDEYNIVKRDVPNMIVEECGCA
- stimulation of Pax4 transcription relative to activin A (in words) (Pax4 [1]): almost equally potent in stimulating Pax4 transcription as activin A

B5: betacellulin: growth factor (protein, UniProt P35070 32-111, looked up)
Betacellulin: DGNSTRSPETNGLLCGDPEENCAATTTQSKRKGHFSRCPKQYKHYCIKGRCRFVVAEQTPSCVCDEGYIGARCERVDLFY
modifications: Betacellulin
notes: growth factor
- replication of primary rat beta cells, agent alone (primary rat beta cells): does not influence replication of primary rat beta cells
